Results: patent US11612604B2, “Methods of treating cancer with PLK4 inhibitors” (LUDWIG INSTITUTE FOR CANCER RESEARCH LTD, priority 2017, dated 2023)

Target: T1, PLK4 (Homo sapiens, UniProt O00444)
T1 sequence (O00444 1-970): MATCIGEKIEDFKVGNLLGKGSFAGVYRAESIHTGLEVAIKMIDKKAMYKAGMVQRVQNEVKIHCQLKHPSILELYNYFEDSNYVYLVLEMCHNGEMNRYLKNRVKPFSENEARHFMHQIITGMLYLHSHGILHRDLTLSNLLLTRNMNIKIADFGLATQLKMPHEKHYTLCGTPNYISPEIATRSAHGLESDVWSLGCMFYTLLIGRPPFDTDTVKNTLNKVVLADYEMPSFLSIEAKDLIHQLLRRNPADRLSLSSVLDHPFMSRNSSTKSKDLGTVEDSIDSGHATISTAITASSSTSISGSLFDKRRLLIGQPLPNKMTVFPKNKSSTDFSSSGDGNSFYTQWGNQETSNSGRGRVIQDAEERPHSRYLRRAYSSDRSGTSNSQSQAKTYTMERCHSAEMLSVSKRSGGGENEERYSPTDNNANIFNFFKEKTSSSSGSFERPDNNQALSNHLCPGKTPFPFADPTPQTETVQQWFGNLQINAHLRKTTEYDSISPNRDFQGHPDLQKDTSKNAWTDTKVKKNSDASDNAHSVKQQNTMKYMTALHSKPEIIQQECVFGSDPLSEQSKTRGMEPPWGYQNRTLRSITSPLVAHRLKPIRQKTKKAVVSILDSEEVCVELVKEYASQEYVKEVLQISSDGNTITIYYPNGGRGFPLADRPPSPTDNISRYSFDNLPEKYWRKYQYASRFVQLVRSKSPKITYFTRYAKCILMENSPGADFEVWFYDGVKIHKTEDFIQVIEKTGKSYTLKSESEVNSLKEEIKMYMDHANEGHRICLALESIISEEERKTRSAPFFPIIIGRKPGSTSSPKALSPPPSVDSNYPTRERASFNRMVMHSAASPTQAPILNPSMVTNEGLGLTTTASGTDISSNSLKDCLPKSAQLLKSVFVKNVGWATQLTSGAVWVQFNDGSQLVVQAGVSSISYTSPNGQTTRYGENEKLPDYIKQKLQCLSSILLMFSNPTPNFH
Experiment: Activity (IC50) of the Table 1 compounds as PLK4 inhibitors
Type: biochemical
Conditions: Table 1, IC50 class

| Structure (SMILES) | IC50 [nM] |
| --- | --- |
| COc1c(Nc2cc(C)[nH]n2)nc(Sc2ccc(/C=C/c3cccc([N+](=O)[O-])c3F)cc2F)nc1N1CCOCC1 | < 100 |
| COc1c(Nc2cc(C)[nH]n2)nc(Sc2ccc(S(=O)(=O)C(C)(C)c3cccc([N+](=O)[O-])c3F)cc2F)nc1N1CCC(CCNC(=O)C(F)(F)F)CC1 | < 100 |
| Cc1cc(Nc2nc(Sc3ccc(S(=O)(=O)Cc4ccccc4)cc3)nc(N3CCN(CCN(C)C)CC3)c2OC(C)C)n[nH]1 | < 100 |
| COc1c(Nc2cc(C)[nH]n2)nc(Sc2ccc(S(=O)(=O)Cc3c(F)c(F)cc(Cl)c3F)cc2F)nc1N1CCOCC1 | < 100 |
| Cc1cc(Nc2nc(Sc3ccc(NC(=O)C4CCCC4)cc3)nc(N(C)C)c2C)n[nH]1 | < 100 |
| COc1c(Nc2cc(C)[nH]n2)nc(Sc2ccc(NC(=O)C3CCCC3)cc2)nc1N1CCNCC1 | < 100 |
| COc1c(Nc2cc(C)[nH]n2)nc(Sc2ccc(S(=O)(=O)C(F)c3cccc([N+](=O)[O-])c3F)cc2F)nc1N1CCN(CCN(C)C)CC1 (stereo not drawn) | < 100 |
| COc1c(Nc2cc(C)[nH]n2)nc(Sc2ccc(S(=O)(=O)Cc3ccccc3C(=O)N(C)C)cc2)nc1N1CCN(CCN(C)C)CC1 | < 100 |
| COc1c(Nc2cc(C)[nH]n2)nc(Sc2ccc(NC(C)=O)cc2)nc1N1CCN(C(C)=O)CC1 | < 100 |
| Cc1cc(Nc2nc(Sc3ccc(N)cc3)nc(N3CCOCC3)c2C)n[nH]1 | < 100 |
| COc1c(Nc2cc(C)[nH]n2)nc(Sc2ccc(NC(C)=O)cc2)nc1N1CCN(C(C)C)CC1 | < 100 |
| COc1c(Nc2cc(C)[nH]n2)nc(Sc2ccc(S(=O)(=O)Cc3c(F)ccc(F)c3F)cc2F)nc1N1CCN(CCN(C)C)CC1 | < 100 |
| COc1c(Nc2cc(C)[nH]n2)nc(Sc2ccc(S(=O)(=O)C3(c4cccc([N+](=O)[O-])c4F)CC3)cc2F)nc1N1CCC(N)CC1 | < 100 |
| CNCC(=O)N1CCN(c2nc(Sc3ccc(NC(C)=O)cc3)nc(Nc3cc(C)[nH]n3)c2OC)CC1 | < 100 |
| COc1c(Nc2cc(C)[nH]n2)nc(Sc2ccc(NC(C)=O)cc2)nc1NC1CCN(C)CC1 | < 100 |
| COc1c(Nc2cc(C)[nH]n2)nc(Sc2ccc(S(=O)(=O)C(C)(C)c3cccc(Cl)c3F)cc2F)nc1N1CCOCC1 | < 100 |
| COc1c(Nc2cc(C)[nH]n2)nc(Sc2ccc(NC(C)=O)nc2)nc1N1CCOCC1 | < 100 |
| COc1c(Nc2cc(C)[nH]n2)nc(Sc2ccc(S(=O)(=O)Cc3cccc([N+](=O)[O-])c3)cc2)nc1N1C2CCC1COC2 | < 100 |
| COc1c(Nc2cc(C)[nH]n2)nc(Sc2ccc(S(=O)(=O)C(C)(C)c3cccc(Br)c3F)cc2F)nc1N1CCN(CCN(C)C)CC1 | < 100 |
| COc1c(Nc2cc(C)[nH]n2)nc(Sc2ccc(S(=O)(=O)C(C)(C)c3cccc([N+](=O)[O-])c3F)cc2F)nc1N1CCC(N(C)C)C1 (stereo not drawn) | < 100 |
| CCN(C)c1nc(Sc2ccc(NC(C)=O)cc2)nc(Nc2cc(C)[nH]n2)c1C | < 100 |
| COc1c(Nc2cc(C)[nH]n2)nc(Sc2ccc(S(=O)(=O)C(C)(C)c3c(F)c(F)cc(F)c3F)cc2F)nc1N1CCC(N)CC1 | < 100 |

| Structure (SMILES) | IC50 [nM] |
| --- | --- |
| COc1c(Nc2cc(C)[nH]n2)nc(Sc2ccc(S(=O)(=O)Cc3cccc(F)c3F)cc2F)nc1N1CCN(CCN(C)C)CC1 | < 100 |
| COc1c(Nc2cc(C)[nH]n2)nc(Sc2ccc(NC(C)=O)cc2)nc1N1CCN(C(=O)CN(C)C)CC1 | < 100 |
| CC(=O)Nc1ccc(Sc2nc(Nc3cc(C)[nH]n3)c(C)c(N(C)C(C)C)n2)cc1 | < 100 |
| COc1c(Nc2cc(C)[nH]n2)nc(Sc2ccc(S(=O)(=O)Cc3ccccc3)cc2)nc1N1CCN(CCN2C3CCCC2CC3)CC1 | < 100 |
| COCC(=O)N1CCN(c2nc(Sc3ccc(C)cc3)nc(Nc3cc(C)[nH]n3)c2C)CC1 | < 100 |
| COc1c(Nc2cc(C)[nH]n2)nc(Sc2ccc(S(=O)(=O)C(F)c3cccc(C#N)c3F)cc2F)nc1N1CCOCC1 (stereo not drawn) | < 100 |
| CC(=O)Nc1ccc(Sc2nc(Nc3cc(C)[nH]n3)c(C)c(N3CCOC[C@H]3C)n2)cc1 | < 100 |
| COc1c(Nc2cc(C)[nH]n2)nc(Sc2ccc(S(=O)(=O)Cc3cccc(C(=O)N(C)C)c3)cc2)nc1N1CCN(CCN(C)C)CC1 | < 100 |
| CCN(C)c1nc(Sc2ccc(NC(C)=O)cc2)nc(Nc2cc(C)[nH]n2)c1OC | < 100 |
| COc1c(Nc2cc(C)[nH]n2)nc(Sc2ccc(S(=O)(=O)Cc3cccc([N+](=O)[O-])c3)cc2)nc1N1CCN(CCN(C)C)CC1 | < 100 |
| COc1c(Nc2cc(C)[nH]n2)nc(Sc2ccc(S(=O)(=O)Cc3ccccc3)cc2Cl)nc1N1CCN(CCN(C)C)CC1 | < 100 |
| COc1c(Nc2cc(C)[nH]n2)nc(Sc2ccc(S(=O)(=O)C(C)(C)c3cccc([N+](=O)[O-])c3F)cc2F)nc1N1CCN(C(=O)CN(C)C)CC1 | < 100 |
| CCN(CC)c1nc(Sc2ccc(NC(C)=O)cc2)nc(Nc2cc(C)[nH]n2)c1OC | < 100 |
| CCS(=O)(=O)c1ccc(Sc2nc(Nc3cc(C)[nH]n3)c(OC)c(N3CCN(CCN(C)C)CC3)n2)c(F)c1 | < 100 |
| COc1c(Nc2cc(C)[nH]n2)nc(Sc2ccc(S(=O)(=O)C(C)(C)c3cccc([N+](=O)[O-])c3F)cc2F)nc1N(C)C | < 100 |
| COCC(=O)N1CCN(c2nc(Sc3ccc(NC(C)=O)cc3)nc(Nc3cc(C)[nH]n3)c2C)CC1 | < 100 |
| Cc1cc(Nc2nc(Sc3ccc([N+](=O)[O-])cc3)nc3c2CCC32CCN(CCN(C)C)CC2)n[nH]1 | < 100 |
| CNCCN1CCN(c2nc(Sc3ccc(NC(=O)C4CC4)cc3)nc(Nc3cc(C)[nH]n3)c2OC)CC1 | < 100 |
| CCS(=O)(=O)c1ccc(Sc2nc(Cc3cc(C)[nH]n3)c(OC)c(N3CCOC[C@@H]3C)n2)c(Cl)c1 | < 100 |
| CC(=O)N1CCN(c2nc(Sc3ccc(NC(=O)C4CC4)cc3)nc(Nc3cc(C)[nH]n3)c2C)CC1 | < 100 |
| COc1c(Nc2cc(C)[nH]n2)nc(Sc2ccc(S(=O)(=O)C(C)(C)c3cccc([N+](=O)[O-])c3F)cc2F)nc1N1CCC(CCCN(C)C)CC1 | < 100 |
| COc1c(Nc2cc(C)[nH]n2)nc(Sc2ccc(S(=O)(=O)C(F)c3cccc([N+](=O)[O-])c3F)cc2F)nc1N1CCOCC1 (stereo not drawn) | < 100 |

| Structure (SMILES) | IC50 [nM] |
| --- | --- |
| CC(=O)Nc1ccc(Sc2nc(Nc3cc(C)[nH]n3)c(C)c(N3CCN(C4CCN(C)CC4)CC3)n2)cc1 | < 100 |
| CC(=O)Nc1ccc(Sc2nc(Nc3cc(C)[nH]n3)c(C)c(N3CCN(CCN(C)C)CC3)n2)cc1 | < 100 |
| CCS(=O)(=O)c1ccc(Sc2nc(Nc3cc(C)[nH]n3)c(OC)c(C3CCN(CCN(C)C)CC3)n2)cc1 | < 100 |
| COc1c(Nc2cc(C)[nH]n2)nc(Sc2ccc(NC(C)=O)cc2)nc1N1CCCCC1 | < 100 |
| CCc1cc(Nc2nc(SC)nc(N3CCN(CCN(C)C)CC3)c2C)n[nH]1 | < 100 |
| COc1c(Nc2cc(C)[nH]n2)nc(Sc2ccc(S(=O)(=O)C(C)(C)c3c(F)c(F)c(C)c(F)c3F)cc2F)nc1N1CCN(CCN(C)C)CC1 | < 100 |
| CC(=O)Nc1ccc(Sc2nc(Nc3cc(C)[nH]n3)c(C)c(N3CCC(C)CC3)n2)cc1 | < 100 |
| Cc1cc(Nc2nc(Sc3ccc(NC(=O)C4CCCC4)cc3)nc(N3CCN(C4CCN(C)CC4)CC3)c2C)n[nH]1 | < 100 |
| COc1c(Nc2cc(C)[nH]n2)nc(Sc2ccc(S(=O)(=O)Cc3ccccc3NC(C)=O)cc2)nc1N1CCN(CCN(C)C)CC1 | < 100 |
| COc1c(Nc2cc(C)[nH]n2)nc(Sc2ccc(NC(C)=O)cc2)nc1N1CCC(CC(=O)O)CC1 | < 100 |
| COc1c(Nc2cc(C)[nH]n2)nc(Sc2ccc(S(=O)(=O)COCc3ccccc3)cc2)nc1N1CCN(CCN(C)C)CC1 | < 100 |
| COc1c(Nc2cc(C)[nH]n2)nc(Sc2ccc(S(=O)(=O)C3(c4cccc([N+](=O)[O-])c4F)CC3)cc2F)nc1N1CCC(NC(=O)C(F)(F)F)CC1 | < 100 |
| CC(=O)Nc1ccc(Cc2nc(N3CCC(O)CC3)nc(Nc3cc(C)[nH]n3)c2Cl)cc1 | < 100 |
| COc1c(Nc2cc(C)[nH]n2)nc(Sc2ccc(NC(C)=O)cc2)nc1N1CCOC[C@@H]1C | < 100 |
| COc1c(Nc2cc(C)[nH]n2)nc(Sc2ccc(NC(=O)C3CC3)cc2)nc1N1CCN(C(C)=O)CC1 | < 100 |
| CNC1CCN(c2nc(Sc3ccc(S(=O)(=O)C(C)(C)c4cccc([N+](=O)[O-])c4F)cc3F)nc(Nc3cc(C)[nH]n3)c2OC)CC1 | < 100 |
| CC(=O)Nc1ccc(Sc2nc(Nc3cc(C)[nH]n3)c(C)c(N(CCO)C(C)C)n2)cc1 | < 100 |
| CCS(=O)(=O)c1ccc(Sc2nc(Nc3cc(C)[nH]n3)c(OC)c(N3CCNCC3)n2)cc1 | < 100 |
| CC(=O)Nc1ccc(Sc2nc(Nc3cc(C)[nH]n3)c(C)c(N3CCC(C)(O)CC3)n2)cc1 | < 100 |
| COc1c(Nc2cc(C)[nH]n2)nc(Sc2ccc(S(=O)(=O)C3(c4cccc([N+](=O)[O-])c4F)CC3)cc2F)nc1N1CCN(CCNC(C)=O)CC1 | < 100 |
| COc1c(Nc2cc(C)[nH]n2)nc(Sc2ccc(NC(=O)C3CC3)cc2)nc1N1CCN(C(=O)CCN(C)C)CC1 | < 100 |
| COc1c(Nc2cc(C)[nH]n2)nc(Sc2ccc(NC(=O)C3CC3)cc2)nc1N1CCN(C(C)C)CC1 | < 100 |
